Source: patent US5183821A, “Method for treating leukemias using N-(2-dimethylaminoethyl)-3-amino-1,8-naphthalimide for treating leukemias and solid tumors” (priority 1991, dated 1993)
Values after ≈ are worked out from the molar mass of the structure shown.

Columns and labels:
HeLa cells = conditions: cytotoxic activity in vitro, monolayer; cited from earlier work
leukemia P388 = experiment: NCI studies against leukemia P388 (Appendix 1, MDA and T/C); format: in vivo, murine; conditions: for STATUS (activity against leukemia P388): at the dose of the same line of the appendix table; for MDA against leukemia P388 / minimal effective dose: minor active dose reaching T/C≥120; for response vs control in vivo at 60 mg/kg: P388, dose 60,00 mg/kg; for minimal effective dose: P388; for response vs control in vivo at 30 mg/kg: P388, dose 30,00 mg/kg; for response vs control in vivo at 120 mg/kg: P388, dose 120,00 mg/kg; for response vs control in vivo at 240 mg/kg: P388, dose 240,00 mg/kg
Source text: On the other hand, murine transplantable leukemias are a good predictor of anti-leukemia activity in human beings (Kenis "Dose schedules and mode of administration of chemotherapeutic agents in man". Recent Results Cancer Res. 21, 54-61 (1969). Only those tests which use the survival times as an activity parameter are valid as predictors of antileukemia activity in human beings (for instance, leukemia p388 y L-1210), whilst "in vitro" tests (HeLa cells and other) are inappropriate (Llombart-Rodriguez, 1983). NCI data generated in the last years confirm the value of above assertions to compounds of general formula [drawing 1] as described in U.S. Pat. No. 4,204,063.
Experimental results from NCI studies against leukemia P388 are shown in an appendix (Appendix 1). In order to simplify the presentation of results we have extracted from these the minor active dose (MDA) against leukemia P388--for each compound. MDA is defined as the minor dose of the drug that reaches the minimal activity criteria of the NCI. For leukemia P388 this criteria on the basis of survival time is a minimal increase in survival of treated animals over a control resulting in a T/C≥120. In the following table the MDA for 14 examples are presented. In cases where none of the tested doses reached the MDA, the MDA is indicated as "NONE". The column "cytotoxic activity" has been extracted from U.S. Pat. No. 4,204,063. Data are presented in order of the highest to lowest cytotoxic activity.

Row | SMILES | ID50 in HeLa cells (HeLa cells) [µg/mL] | STATUS (activity against leukemia P388) (leukemia P388) | MDA against leukemia P388 (leukemia P388) | response vs control in vivo at 60 mg/kg (leukemia P388; Mus musculus) [%] | minimal effective dose (leukemia P388; Mus musculus) [mg/kg] | response vs control in vivo at 30 mg/kg (leukemia P388; Mus musculus) [%] | response vs control in vivo at 120 mg/kg (leukemia P388; Mus musculus) [%] | response vs control in vivo at 240 mg/kg (leukemia P388; Mus musculus) [%] | other results
1 | COc1cc2c3c(cccc3c1)C(=O)N(CCN1CCCC1)C2=O [Example 27] | 0.75 (≈ 2.31 µM) | None dose tested | NONE |  |  |  |  |  | response vs control in vivo at 17 mg/kg (leukemia P388; Mus musculus, P388, dose 17,30 mg/kg): 112%; response vs control in vivo at 34 mg/kg (leukemia P388; Mus musculus, P388, dose 34,70 mg/kg): 116%; response vs control in vivo at 50 mg/kg (leukemia P388; Mus musculus, P388, dose 50,00 mg/kg): 100%; response vs control in vivo at 69 mg/kg (leukemia P388; Mus musculus, P388, dose 69,30 mg/kg): 116%; response vs control in vivo at 100 mg/kg (leukemia P388; Mus musculus, P388, dose 100,00 mg/kg): 101%; response vs control in vivo at 200 mg/kg (leukemia P388; Mus musculus, P388, dose 200,00 mg/kg): 100%; T/C % (leukemia P388; dose 138,60 mg/kg): Toxic
2 | CC(=O)Nc1cc2c3c(cccc3c1)C(=O)N(CCN(C)C)C2=O [Example 30] | 4.0 (≈ 12.3 µM) | T/C > 120 active |  | < 100 | 3.75 |  |  |  | response vs control in vivo at 3.75 mg/kg (leukemia P388; Mus musculus, P388, dose 3,75 mg/kg): 137%; response vs control in vivo at 7 mg/kg (leukemia P388; Mus musculus, P388, dose 7,50 mg/kg): 144%; T/C % (leukemia P388; dose 120,00 mg/kg): Toxic.; T/C % (leukemia P388; dose 240,00 mg/kg): Toxic.
3 | Nc1cc2c3c(cccc3c1)C(=O)N(CCN1CCCC1)C2=O [Example 11] | 1.5 (≈ 4.85 µM) | T/C > 120 active |  |  | 6.5 |  |  |  | response vs control in vivo at 24 mg/kg (leukemia P388; Mus musculus, P388, dose 24,20 mg/kg): 160%; response vs control in vivo at 48 mg/kg (leukemia P388; Mus musculus, P388, dose 48,39 mg/kg): 96%
4 | CCOC(=O)Nc1cc2c3c(cccc3c1)C(=O)N(CCN1CCCC1)C2=O [Example 29] | 10.0 (≈ 26.2 µM) | T/C > 120 active |  | 131 | 30 | 127 | 135 | 158 | 
5 | CC(=O)Nc1cc2c3c(cccc3c1)C(=O)N(CCN1CCCC1)C2=O [Example 31] | 5.0 (≈ 14.2 µM) | T/C > 120 active |  | 184 | 30 | 186 | 107 |  | 
6 | CCOC(=O)Nc1cc2c3c(cccc3c1)C(=O)N(CCN(C)C)C2=O [Example 28] | 10.0 (≈ 28.1 µM) | T/C > 120 active |  |  | 30 | 123 |  |  | 
7 | COc1cc2c3c(cccc3c1)C(=O)N(CCN(C)C)C2=O [Example 26] | 1.5 (≈ 5.03 µM) | T/C > 120 active |  |  | 18.9 |  |  |  | 
8 | O=C1c2cccc3cc([N+](=O)[O-])cc(c23)C(=O)N1CCN1CCOCC1 [Example 4] | 6.0 (≈ 16.9 µM) | None dose tested | NONE | 96 |  |  | 96 | 100 | 
9 | Nc1cc2c3c(cccc3c1)C(=O)N(CCN1CCCCC1)C2=O [Example 12] | 8.0 (≈ 24.7 µM) | None dose tested | NONE | 108 |  |  | 103 | 114 | 
10 | CCN(CC)CCN1C(=O)c2cccc3cc(N)cc(c23)C1=O [Example 10] | 3.0 (≈ 9.63 µM) | T/C > 120 active |  |  | 3.2 |  |  |  | response vs control in vivo at 1 mg (leukemia P388; Mus musculus, P388, dose 1,56 mg as printed): 101%; response vs control in vivo at 1 mg (leukemia P388; Mus musculus, P388, dose 1,60 mg as printed): 100%; response vs control in vivo at 3 mg (leukemia P388; Mus musculus, P388, dose 3,12 mg as printed): 98%; response vs control in vivo at 3 mg (leukemia P388; Mus musculus, P388, dose 3,20 mg as printed): 108%; response vs control in vivo at 6 mg (leukemia P388; Mus musculus, P388, dose 6,25 mg as printed): 98%; response vs control in vivo at 6 mg (leukemia P388; Mus musculus, P388, dose 6,50 mg as printed): 107%; response vs control in vivo at 13 mg (leukemia P388; Mus musculus, P388, dose 13,00 mg as printed): 121%; response vs control in vivo at 25 mg (leukemia P388; Mus musculus, P388, dose 25,00 mg as printed): 114%; response vs control in vivo at 26 mg (leukemia P388; Mus musculus, P388, dose 26,00 mg as printed): 124%; response vs control in vivo at 50 mg (leukemia P388; Mus musculus, P388, dose 50,00 mg as printed): 160%; response vs control in vivo at 100 mg (leukemia P388; Mus musculus, P388, dose 100,00 mg as printed): < 100%
11 | Nc1cc2c3c(cccc3c1)C(=O)N(CCN1CCOCC1)C2=O [Example 13] | 10.0 (≈ 30.7 µM) | None dose tested | NONE | 102 |  |  | 102 | 109 | 
12 | O=C1c2cccc3cc(O)cc(c23)C(=O)N1CCN1CCOCC1 [Example 24] | 3.5 (≈ 10.7 µM) | T/C > 120 active |  | 110 | 240 | 107 | 117 | 127 | 
13 | CCN(CC)CCCN1C(=O)c2cccc3cc([N+](=O)[O-])cc(c23)C1=O [Example 3] | 20.0 (≈ 56.3 µM) | None dose tested | NONE | 108 |  |  | 103 | 114 | 
